Values belong to the compound of their own block, whether it stands above or below them.
Tests used:
[1] = molecular target: T1, Rat Kidney Medullary V2 Receptors (Rattus norvegicus, UniProt Q00788); assay: Binding Assay to Rat Kidney Medullary V2 Receptors; settings: rat kidney medulla membranes; read-out: V2 IC50
T1 construct: Medullary tissues from rat kidneys are dissected out; from tissue; host or cells: rat kidney medulla membranes
Method in brief: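 IC50 derived from competition curves; bound tritium counted by liquid scintillation after filtration. Rat medullary kidney membranes (Tris-HCl pH 7.4, BSA, PMSF) were incubated 120 min to equilibrium with radioligand and test compound (added in 50% DMSO). Nonspecific binding: 1.0 μM unlabeled ligand.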

Vasopressin V1 = Vasopressin V1 Antagonist Activity in Conscious Rats (vasopressin vasopressor response); type: in vivo, rat; parameters: Average Change: unit not given here; settings: for % Inhibition / Average Change: SHR
Method in brief: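 Conscious rats are restrained supine, and under local 2% procaine a PE 10/20 cannula is passed through the ventral caudal tail artery into the lower abdominal aorta. The caudal vein is cannulated for intravenous dosing. Blood pressure is recorded with a Statham P23Db transducer, and vasopressin injections are repeated after compound dosing. Percent antagonism is calculated against the pre-drug vasopressor response taken as 100%.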

oxytocin receptors = molecular target: T2, oxytocin receptors (Rattus norvegicus, UniProt P70536); assay: Oxytocin Receptor Binding; settings: for IC50: 1.0 nM [3H]oxytocin; for inhibition at 10 µM: [3H]oxytocin
T2 construct: The uteri are dissected out, cleaned of fat and connective tissues; from tissue; host or cells: uterus of DES-treated female Sprague-Dawley rats
T2 sequence (P70536 1-388): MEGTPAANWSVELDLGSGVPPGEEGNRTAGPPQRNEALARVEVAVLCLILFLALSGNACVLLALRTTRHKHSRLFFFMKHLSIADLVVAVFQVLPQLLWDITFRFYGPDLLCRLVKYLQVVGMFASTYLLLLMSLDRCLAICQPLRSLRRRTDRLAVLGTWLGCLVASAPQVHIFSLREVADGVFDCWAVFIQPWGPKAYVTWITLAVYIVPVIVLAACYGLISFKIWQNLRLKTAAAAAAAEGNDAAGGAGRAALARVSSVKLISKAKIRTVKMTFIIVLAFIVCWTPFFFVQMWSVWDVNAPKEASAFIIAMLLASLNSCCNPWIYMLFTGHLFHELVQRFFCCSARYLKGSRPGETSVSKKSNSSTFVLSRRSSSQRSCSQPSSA
Method in brief: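 IC50 is the concentration displacing 50% of 1.0 nM [3H]OT, incubated 60 min at 22 °C in pH 7.4 Tris/MgCl2 buffer plus protease inhibitors, then filtered. Receptor source: uterine membranes from rats given 0.3 mg/kg DES i.m. 18 h earlier. 1.0 uM cold OT defined non-specific binding.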

[2] = 10 mg/kg i.v., VAS 0.01 i.u./kg, 30 min
[3] = 10 mg/kg i.v., VAS 0.01 i.u./kg, 60 min
[4] = 10 mg/kg i.v., VAS 0.01 i.u./kg, 90 min
[5] = 10 mg/kg i.v., VAS 0.01 i.u./kg, 120 min
[6] = 10 mg/kg i.v., VAS 0.01 i.u./kg, 180 min
[7] = 10 mg/kg i.v., VAS 0.01 i.u./kg, 240 min
[8] = 10 mg/kg i.v., VAS 0.01 i.u./kg, 300 min
[9] = 10 mg/kg i.v., VAS 0.02 i.u./kg, 30 min
[10] = 10 mg/kg i.v., VAS 0.02 i.u./kg, 60 min
[11] = 10 mg/kg i.v., VAS 0.02 i.u./kg, 90 min
[12] = 10 mg/kg i.v., VAS 0.02 i.u./kg, 120 min
[13] = 10 mg/kg i.v., VAS 0.02 i.u./kg, 180 min
[14] = 10 mg/kg i.v., VAS 0.02 i.u./kg, 240 min
[15] = 10 mg/kg i.v., VAS 0.02 i.u./kg, 300 min

T1 sequence (Q00788 whole entry): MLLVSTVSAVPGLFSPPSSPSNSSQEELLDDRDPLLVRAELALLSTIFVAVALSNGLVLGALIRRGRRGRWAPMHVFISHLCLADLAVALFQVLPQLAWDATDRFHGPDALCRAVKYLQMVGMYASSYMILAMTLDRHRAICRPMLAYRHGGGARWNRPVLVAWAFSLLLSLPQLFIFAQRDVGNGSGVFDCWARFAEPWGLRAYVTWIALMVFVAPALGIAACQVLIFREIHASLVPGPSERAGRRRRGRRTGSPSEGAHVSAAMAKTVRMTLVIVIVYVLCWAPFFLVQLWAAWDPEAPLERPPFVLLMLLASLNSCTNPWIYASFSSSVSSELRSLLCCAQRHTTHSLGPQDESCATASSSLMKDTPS

SMILES: O=C(Nc1ccc(C(=O)N2Cc3cccn3Cc3ccccc32)cc1)c1ccccc1Cl [Example 7]
IC50 [1]: 5 nM
% Inhibition (Vasopressin V1; [2]): 87%
Average Change (Vasopressin V1; [2]): 6
% Inhibition (Vasopressin V1; [3]): 87%
Average Change (Vasopressin V1; [3]): 6
% Inhibition (Vasopressin V1; [4]): 82%
Average Change (Vasopressin V1; [4]): 8.5
% Inhibition (Vasopressin V1; [5]): 80%
Average Change (Vasopressin V1; [5]): 9.5
% Inhibition (Vasopressin V1; [6]): 63%
Average Change (Vasopressin V1; [6]): 17.5
% Inhibition (Vasopressin V1; [7]): 56%
Average Change (Vasopressin V1; [7]): 20.5
% Inhibition (Vasopressin V1; [8]): 57%
Average Change (Vasopressin V1; [8]): 20
% Inhibition (Vasopressin V1; [9]): 87%
Average Change (Vasopressin V1; [9]): 7.5
% Inhibition (Vasopressin V1; [10]): 86%
Average Change (Vasopressin V1; [10]): 8
% Inhibition (Vasopressin V1; [11]): 78%
Average Change (Vasopressin V1; [11]): 12.5
% Inhibition (Vasopressin V1; [12]): 77%
Average Change (Vasopressin V1; [12]): 13
% Inhibition (Vasopressin V1; [13]): 59%
Average Change (Vasopressin V1; [13]): 23
% Inhibition (Vasopressin V1; [14]): 46%
Average Change (Vasopressin V1; [14]): 30.5
% Inhibition (Vasopressin V1; [15]): 59%
Average Change (Vasopressin V1; [15]): 23
IC50 (oxytocin receptors): 130 nM
inhibition at 10 µM (oxytocin receptors): 97%

SMILES: CSc1ccccc1C(=O)Nc1ccc(C(=O)N2Cc3cccn3Cc3ccccc32)cc1 [Example 85, N-[4-(5H-Pyrrolo[2,1-c][1,4]benzodiazepin-10(11H)-ylcarbonyl)phenyl]-2-(methylthio)benzamide]
IC50 [1]: 13 nM
% Inhibition (Vasopressin V1; [2]): 83%
Average Change (Vasopressin V1; [2]): 4.5
% Inhibition (Vasopressin V1; [3]): 74%
Average Change (Vasopressin V1; [3]): 7
% Inhibition (Vasopressin V1; [4]): 64%
Average Change (Vasopressin V1; [4]): 9.5
% Inhibition (Vasopressin V1; [5]): 66%
Average Change (Vasopressin V1; [5]): 9
% Inhibition (Vasopressin V1; [6]): 42%
Average Change (Vasopressin V1; [6]): 15.5
% Inhibition (Vasopressin V1; [7]): 55%
Average Change (Vasopressin V1; [7]): 12
% Inhibition (Vasopressin V1; [8]): 5%
Average Change (Vasopressin V1; [8]): 12
% Inhibition (Vasopressin V1; [9]): 75%
Average Change (Vasopressin V1; [9]): 9
% Inhibition (Vasopressin V1; [10]): 73%
Average Change (Vasopressin V1; [10]): 9.5
% Inhibition (Vasopressin V1; [11]): 79%
Average Change (Vasopressin V1; [11]): 7.5
% Inhibition (Vasopressin V1; [12]): 82%
Average Change (Vasopressin V1; [12]): 6.5
% Inhibition (Vasopressin V1; [13]): 45%
Average Change (Vasopressin V1; [13]): 19.5
% Inhibition (Vasopressin V1; [14]): 49%
Average Change (Vasopressin V1; [14]): 18
% Inhibition (Vasopressin V1; [15]): 49%
Average Change (Vasopressin V1; [15]): 18
IC50 (oxytocin receptors): 460 nM
inhibition at 10 µM (oxytocin receptors): 98%

SMILES: O=C(Nc1ccc(C(=O)N2Cc3cccn3Cc3ccccc32)c(Cl)c1)c1ccc(Cl)cc1Cl [Example 471]
IC50 [1]: 8.3 nM
Max. % Inhibition (Vasopressin V1; 30 mg/kg i.v.): 85%
Time (of max. % inhibition) (Vasopressin V1; 30 mg/kg i.v.): 90 min
IC50 (oxytocin receptors): 350 nM
inhibition at 10 µM (oxytocin receptors): 99%

SMILES: O=C(Nc1ccc(C(=O)N2Cc3cccn3Cc3ccccc32)cc1)c1cccc(C(F)(F)F)c1 [Example 474, N-[4-(5H-pyrrolo[2,1-c][1,4]benzodiazepin-10(11H)-ylcarbonyl)phenyl]-3-(trifluoromethyl)benzamide]
IC50 [1]: 38 nM
Max. % Inhibition (Vasopressin V1; 30 mg/kg i.v.): 80%
Time (of max. % inhibition) (Vasopressin V1; 30 mg/kg i.v.): 60 min
inhibition at 10 µM (oxytocin receptors): 18%

SMILES: O=C(Nc1ccc(C(=O)N2Cc3cccn3-c3ccccc32)cc1)c1ccc(Cl)cc1Cl [Example 17, N-[4-(pyrrolo(1,2-a]quinoxalin-5(4H)-ylcarbonyl)phenyl]-2,4-dichloro-benzamide]
IC50 [1]: 110 nM
Max. % Inhibition (Vasopressin V1; 30 mg/kg i.v.): 50%
Time (of max. % inhibition) (Vasopressin V1; 30 mg/kg i.v.): 60 min
inhibition at 10 µM (oxytocin receptors): 31%

Second part, led by results:

IC50 [1]: 8 nM
IC50 (oxytocin receptors): 150 nM
inhibition at 10 µM (oxytocin receptors): 76%
SMILES: COc1cc(C(=O)N2Cc3cccn3Cc3ccccc32)ccc1NC(=O)c1cccc(F)c1C [Example 479, N-[4-(5H-pyrrolo[2,1-c][1,4]benzodiazepin-10(11H)-ylcarbonyl)-2-methoxy-phenyl]-3-fluoro-2-methylbenzamide]
Max. % Inhibition (Vasopressin V1; 10 mg/kg i.v.): 83%
Time (of max. % inhibition) (Vasopressin V1; 10 mg/kg i.v.): 60 min
Max. % Inhibition (Vasopressin V1; 30 mg/kg p.o.): 69%
Time (of max. % inhibition) (Vasopressin V1; 30 mg/kg p.o.): 90 min

IC50 [1]: 83 nM
IC50 (oxytocin receptors): 4700 nM
inhibition at 10 µM (oxytocin receptors): 70%
SMILES: NC(=O)CNC(C(=O)Nc1ccc(C(=O)N2Cc3cccn3Cc3ccccc32)cc1)c1ccccc1 (stereo not drawn) [Example 585]
Max. % Inhibition (Vasopressin V1; 10 mg/kg i.v.): 56%
Time (of max. % inhibition) (Vasopressin V1; 10 mg/kg i.v.): 30 min

Source: US5624923A, “Tricyclic diazepine vasopressin antagonists and oxytocin antagonists” (priority 1995, dated 1997)
